Legend:
[1] = species on record: Rattus norvegicus; experiment: Tested for its ability to increase cAMP production (in the absence of glucagon) in rat liver homogenates; no measurable agonist activity; type: functional
[2] = species on record: Rattus norvegicus; experiment: Inhibitory concentration against glucagon receptor -stimulated cAMP production in rat liver homogenates; type: functional
[3] = biological target: Glucagon receptor (Rattus norvegicus, UniProt P30082); experiment: Tested against glucagon receptor for its ability to displace radiolabeled ([125I]-glucagon) in […] liver
Chain of Glucagon receptor (P30082 whole entry): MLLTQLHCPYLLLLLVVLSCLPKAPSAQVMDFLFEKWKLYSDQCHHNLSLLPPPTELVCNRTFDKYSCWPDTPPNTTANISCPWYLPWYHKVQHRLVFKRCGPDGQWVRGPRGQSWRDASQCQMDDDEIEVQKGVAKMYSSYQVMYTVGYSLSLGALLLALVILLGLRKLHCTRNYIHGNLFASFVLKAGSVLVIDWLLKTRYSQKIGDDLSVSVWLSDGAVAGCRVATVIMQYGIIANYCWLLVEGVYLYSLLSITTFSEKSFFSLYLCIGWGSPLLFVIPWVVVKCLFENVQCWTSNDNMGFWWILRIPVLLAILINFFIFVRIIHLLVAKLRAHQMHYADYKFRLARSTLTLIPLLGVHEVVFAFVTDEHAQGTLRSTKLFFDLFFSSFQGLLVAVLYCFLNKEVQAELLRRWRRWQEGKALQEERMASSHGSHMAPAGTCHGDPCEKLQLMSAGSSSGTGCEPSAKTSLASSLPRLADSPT

CN(C)CCCN(C)c1nc2cc(Cl)c(Cl)cc2nc1/C=C/c1ccccc1
IC50 [1]: > 32 µM
IC50 [2]: 7 µM
IC50 [3]: 4 µM

Reference: ChEMBL document CHEMBL1126462, “CP-99,711: a non-peptide glucagon receptor antagonist” (Bioorg Med Chem Lett, 1992)
